Results: patent US9340559B2, “Proteasome inhibitor delanzomib for use in the treatment of lupus” (Cephalon, Inc., priority 2011, dated 2016)

What was measured:
IκBα [1] = assay: IκBα accumulation ELISA in kidney 3 hours post dose, MRL/lpr mice; type: in vivo, mouse
Procedure: (§1) Samples are homogenized frozen using a PT 10-35 Polytron homogenizer (VWR, no. 97036-082). […] Spleen proteasome activity is analyzed using 20S fluorogenic assay (Cayman Chemical Company, Cat #10008041, Lot #0414698-1) and modulation of proteasome activity in the kidney is analyzed using the IκBα accumulation ELISA assay (Cell Signaling, Cat #7355, Lot #17).

NZM mice [2] = assay: Splenomegaly (spleen mass), NZM mice (Example 2); type: in vivo, mouse
NZM mice [3] = assay: Antibody secreting B-cell Elispot (anti-chromatin, total IgG ASC), spleens of NZM mice (Example 2); type: in vivo, mouse
Procedure: (§2) FIG. 34 depicts the frequency of anti-chromatin antibody secreting cells in the spleens of NZM mice. NZM treated mice spleens were processed for splenocytes for ex vivo Elispot assays. Elispot wells were coated with 10 μg/mL of boiled chicken chromatin or ovalbumin protein. Fresh, whole splenocytes were added to each well at 50,000 cells per well in cell culture medium. Cells were incubated overnight at 37° C. Developed wells provided spots that were counted as frequency of ASCs per million splenocytes.
as §2, with “35” for “34”, “total IgG” for “anti-chromatin”, “anti-mouse IgG, IgH, and IgL chains.” for “boiled chicken chromatin or ovalbumin protein.”
B-cell Elispot components are ordered from MabTech (Nacka Strand, Sweden) and nitrocellulose IP filter plates are ordered from Millipore (Billerica, Mass.). Elispot wells are coated with either purified bovine thymus dsDNA (Sigma), purified bovine Smith antigen (GenWay) or boiled filtered purified chicken chromatin from lysed chicken red blood cells (Rockland, Gilbertsville, Pa.) at 10 μg/mL. Spleens are processed using glass homogenization (frosted slides). Dispersed cell contents are washed in sterile HBSS and RBCs lysed using 1×RBC lysis buffer (BioLegend, Cat #420301). Processed splenocytes are added to each well and are not stimulated with lipopolysaccharide (LPS) to avoid skewing of true ex vivo frequencies of antibody-secreting cell types (ASCs). Anti-mouse pan-IgG is used as a positive control for total IgG producing ASCs and is used to normalize results. Frequencies for each antigen are identified in an initial test phase for each model. For chromatin and total IgG only, 30,000 splenocytes are added to each well; for Smith antigen and dsDNA, 500,000 cells are added to each well. Different numbers of splenocytes are added for different antigens due to saturation limits of spot frequencies per well. B-cell Elispots are incubated overnight at 37° C. To develop each assay, secondary antibody is added to each well, incubated, washed and alkaline phosphatase strepavidin (Jackson ImmunoResearch, West Grove, Pa.) is used as the conjugate; substrate used is BCIP-NBT (MabTech, Cincinnati, Ohio). Plates are developed until spots are visible. All Elispot analyses are performed using an Immunospot C.T.L. scanner and Biospot software (Cellular Technology Ltd., Shaker Heights, Ohio). Results are shown as values from which media and cells only wells are subtracted. Some values are negative due to high background.

NZM mice [4] = assay: Collagen type-I cross-linker (CTx) bone resorption biomarker ELISA, serum of NZM mice; type: in vivo, mouse
Procedure: Assay is performed as instructed by the manufacturer. Briefly, biotinylated ratlaps antigen is first added in each well of a 96-well ELISA plate. This plate is covered and incubated for 30 minutes at RT. Plate is washed five times with washing solution and incubated with standards or unknown samples in appropriate wells followed by primary Ab. Incubate overnight for 18 hours at 4° C. followed by washing with buffer. Secondary incubation includes a peroxidase conjugated goat anti-rabbit IgG added to each well and incubation at RT for 1 hour. Incubation with chromogenic substrate solution for 15 minutes at RT in the dark develops the plate for analysis. Stopping solution halts the reaction, absorbance is measured within 2 hours at 450 nm.

IκBα [5] = assay: IκBα accumulation ELISA in kidney 3 hours post dosing, NZM mice (Example 2); type: in vivo, mouse
Procedure: as §1

NZM mice [6] = assay: Renal histopathology blinded scores, NZM mice (Example 3); type: in vivo, mouse
Procedure: FIG. 52 depicts renal histopathology scores from NZM mice (H&E stained paraffin wax embedded kidney tissues sections from 25 week old mice).
For histological analyses, the left kidney from each animal is removed and fixed in 10% buffered neutral formalin (EMD) for 48 hours on an orbital rocker at 25° C., then washed overnight with running dH2O and stored in 70% ethanol at 4° C. until ready to be processed. Kidney stains used for histological analyses included hematoxylin and eosin (H&E), Periodic Acid Schiff (PAS) and Trichrome stains (Wistar Institute, Philadelphia, Pa.). All 3 stained sections are used by the pathologist for scoring purposes. All histological scoring is performed blinded and by an independent board certified veterinary medical pathologist (Julie Engiles, VMD, DACVP). Multiple stains are used to determine score values. Images in FIG. 39 show worst affected area of section selected blindly by the pathologist.
Kidney IC-GN Scoring Method (Smith, Dong et al. 2007): […]

NZM mice [7] = assay: Serum C3 complement ELISA, NZM mice (Example 2)
20S proteasome = 20S proteasome activity in spleen (ex vivo fluorogenic assay), MRL/lpr mice; settings: for PD EOS 20S proteasome, percent change vs vehicle: spleen
NZM mice [8] = assay: Antinuclear antibody ELISA (anti-Smith, anti-dsDNA), serum of NZM mice (Example 3)

With CC(C)C[C@H](NC(=O)[C@H](Cc1ccccc1)NC(=O)c1cnccn1)B(O)O [bortezomib, reference compound] the “PD EOS IκBα accumulation, percent change vs vehicle” value (IκBα [1]; G4: 0.5 mg/kg iv, 1× wk) was “+340%”, the “PD EOS IκBα accumulation, percent change vs vehicle” value (IκBα [1]; G5: 0.3 mg/kg iv, 2× wk) was “+99%” and the “Spleen mass EOS, percent change vs vehicle” value (NZM mice [2]; G3 0.3 mg/kg ip, 1× wk) was “+14%”. The “Spleen mass EOS, percent change vs vehicle” value (NZM mice [2]; G4 0.3 mg/kg ip, 2× wk) was −19%, the “ASC chromatin EOS, percent change vs vehicle” value (NZM mice [3]; G3 0.3 mg/kg ip, 1× wk) was −46% and the “ASC total IgG EOS, percent change vs vehicle” value (NZM mice [3]; G3 0.3 mg/kg ip, 1× wk) was −1%. The “ASC chromatin EOS, percent change vs vehicle” value (NZM mice [3]; G4 0.3 mg/kg ip, 2× wk) was −74%, the “ASC total IgG EOS, percent change vs vehicle” value (NZM mice [3]; G4 0.3 mg/kg ip, 2× wk) was −31% and the “Serum CTx linker AUC, percent change vs vehicle” value (NZM mice [4]; G3 0.3 mg/kg ip, 1× wk) was −27%. The “Serum CTx linker AUC, percent change vs vehicle” value (NZM mice [4]; G4 0.3 mg/kg ip, 2× wk) was −35%, the “serum CTx levels compared to vehicle” value (NZM mice [4]; treatment groups) was “no change in CTx levels” and the “PD IκBα accumulation, percent change vs vehicle” value (IκBα [5]; G3 0.3 mg/kg ip, 1× wk) was “+61%”. For the same compound, the “PD IκBα accumulation, percent change vs vehicle” value (IκBα [5]; G4 0.3 mg/kg ip, 2× wk) was “+29%”, the “combined average renal histopathology blinded score decrease vs vehicle” value (NZM mice [6]; Group 7, ip) was 19.4% and the “combined average renal histopathology blinded score decrease vs vehicle” value (NZM mice [6]; Group 8, sc) was 43.6%. For the same compound, the “Serum C3 complement AUC, percent change vs vehicle” value (NZM mice [7]; G3 0.3 mg/kg ip, 1× wk) was 8%, the “Serum C3 complement AUC, percent change vs vehicle” value (NZM mice [7]; G4 0.3 mg/kg ip, 2× wk) was −11% and the “spleen 20S proteasome function decrease vs vehicle” value (20S proteasome; Group 4) was 40%. The “spleen 20S proteasome function decrease vs vehicle” value (20S proteasome; Group 5) was 41%, the “PD EOS 20S proteasome, percent change vs vehicle” value (20S proteasome; G4: 0.5 mg/kg iv, 1× wk) was −40% and the “PD EOS 20S proteasome, percent change vs vehicle” value (20S proteasome; G5: 0.3 mg/kg iv, 2× wk) was −41%. For the same compound, the “serum anti-dsDNA ANA decrease vs vehicle” value (NZM mice [8]; Group 7, ip) was 25.8%, the “serum anti-smith ANA decrease vs vehicle” value (NZM mice [8]; Group 7, ip) was 66.7% and the “serum anti-dsDNA ANA decrease vs vehicle” value (NZM mice [8]; Group 8, sc) was 55.4%. For the same compound, the “serum anti-smith ANA decrease vs vehicle” value (NZM mice [8]; Group 8, sc) was 85.7%.
